The values that follow come from PubChem BioAssay (NCI).

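Results reflect a 48-hour exposure of cells in 96-well plates to compound at five concentrations. Here, GI50 denotes the concentration required for 50% inhibition of growth. Definition used: TGI = concentration required for complete inhibition of growth.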

Some test systems named below: OVCAR-8 ovarian; RPMI-8226 leukemia; CCRF-CEM leukemia; A498 renal; COLO 205 colon; CAKI-1 renal; RXF 393 renal; SR leukemia; HOP-62 NSCLC; DU-145 prostate.
Common to all, as to assay: inhibition of tumour cell growth, NCI panel, 48 h

As for `COc1ccc(CN2C(=O)C(Cc3cc(OC)c(OC)c(C)c3OC)N(C(=O)OC(C)C)C(=O)/C2=C/c2cc(OC)c(OC)c(C)c2OC)cc1` (stereo not given), the TGI with OVCAR-8 ovarian, with RPMI-8226 leukemia, in the assay with CCRF-CEM leukemia, in the assay on A498 renal, in the assay with COLO 205 colon and in the assay with CAKI-1 renal was over 100 µM throughout. Further, the TGI in the assay on RXF 393 renal is over 100 µM; with SR leukemia, 89.8 µM; with HOP-62 NSCLC, over 100 µM.

Take `O=C1OC(c2ccccc2)C2CC3CC4(CCC3CN12)OCCO4` (stereo not given): the TGI in the assay on OVCAR-8 ovarian, with RPMI-8226 leukemia, in the assay on CCRF-CEM leukemia, in the assay on A498 renal, with COLO 205 colon and in the assay on CAKI-1 renal was over 100 µM each time. Further, the TGI with RXF 393 renal, with SR leukemia and with HOP-62 NSCLC was over 100 µM throughout.

As to `C[C@]12CCC3[C@@H](C[C@H]4OC(=O)[C@@]35CCC(=O)C=C45)C1CCC2=O` (stereo not given in full), the TGI with OVCAR-8 ovarian, with RPMI-8226 leukemia, in the assay on CCRF-CEM leukemia, in the assay with COLO 205 colon, in the assay on RXF 393 renal and in the assay on SR leukemia was over 100 µM throughout.

As to `CCOc1cc(C=O)c2c(ccc3ccc(OC)c(OC)c32)c1OC`, the TGI with OVCAR-8 ovarian, with RPMI-8226 leukemia, in the assay with CCRF-CEM leukemia, in the assay on COLO 205 colon, in the assay on CAKI-1 renal and with RXF 393 renal was over 100 µM throughout. This compound also had a TGI in the assay with DU-145 prostate of over 100 µM.

In the case of `CN(C)c1ccccc1CC(c1c[nH]c2ccccc12)c1c[nH]c2ccccc12`, the TGI with OVCAR-8 ovarian was 26.1 µM; in the assay on CCRF-CEM leukemia it was 26.6 µM; in the assay with A498 renal it was 31.1 µM; with COLO 205 colon, 11.3 µM; with CAKI-1 renal, 16.3 µM; with RXF 393 renal, 20.2 µM. The TGI in the assay on SR leukemia worked out at 21.6 µM; in the assay on HOP-62 NSCLC, 23.3 µM.

As for `Cc1cc(C)nc(NS(=O)(=O)c2ccc(NC(=O)c3cccc4c(Nc5ccc(S(=O)(=O)Nc6nc(C)cc(C)n6)cc5)c5ccccc5nc34)cc2)n1`, the TGI with OVCAR-8 ovarian was 68.1 µM; with RPMI-8226 leukemia, 61.8 µM; in the assay with CCRF-CEM leukemia it was 69.6 µM; in the assay with A498 renal, 35.9 µM; in the assay with COLO 205 colon, 45.4 µM; in the assay with CAKI-1 renal it was 51.6 µM. Moreover, the TGI was determined as 31.5 µM in the assay with RXF 393 renal and 66 µM with HOP-62 NSCLC.

With `O=c1c2cc(Br)ccc2[nH]c(=S)n1-c1ccc(Br)cc1`, the TGI in the assay with OVCAR-8 ovarian, in the assay with RPMI-8226 leukemia, in the assay on A498 renal, with COLO 205 colon, with RXF 393 renal and in the assay on SR leukemia was over 100 µM throughout. The compound also displayed a TGI in the assay with HOP-62 NSCLC of over 100 µM.

Consider `Cc1cc2cc(Cl)ccc2nc1C(=O)c1ccccc1`, for which the TGI in the assay on OVCAR-8 ovarian, with RPMI-8226 leukemia, in the assay on COLO 205 colon, in the assay with CAKI-1 renal, in the assay with RXF 393 renal and with SR leukemia was over 100 µM throughout. In the assay on HOP-62 NSCLC, this compound returned a TGI of over 100 µM.

Turning to `O=C1C(c2ccc([N+](=O)[O-])cc2)=[N+]([O-])c2ccccc21`, the TGI in the assay with OVCAR-8 ovarian was 16.4 µM; in the assay on RPMI-8226 leukemia it was over 100 µM; in the assay on CCRF-CEM leukemia, over 100 µM; with COLO 205 colon, 30.1 µM; in the assay with CAKI-1 renal, over 100 µM; with RXF 393 renal it was 60.4 µM. The TGI was found to be 62.3 µM with SR leukemia and 82.3 µM in the assay with HOP-62 NSCLC.

On to `O=C(CCc1nnc2s/c(=C\c3ccc4c(c3)OCO4)c(=O)n12)Nc1cc(Cl)ccc1Cl`, for which the TGI in the assay on OVCAR-8 ovarian, in the assay on RPMI-8226 leukemia, in the assay with CCRF-CEM leukemia, with A498 renal, in the assay with COLO 205 colon and with CAKI-1 renal was over 100 µM each time. The TGI in the assay with RXF 393 renal, in the assay with SR leukemia and in the assay on HOP-62 NSCLC was over 100 µM throughout.

On to `CCOC(=O)NC(=O)c1cn(CCCCCOC(=O)NCCCCCCNC(=O)OCCCCCn2cc(C(=O)NC(=O)OCC)c(=O)[nH]c2=O)c(=O)[nH]c1=O`, for which the TGI with OVCAR-8 ovarian, with RPMI-8226 leukemia, in the assay with CCRF-CEM leukemia, in the assay with A498 renal, with COLO 205 colon and in the assay on CAKI-1 renal was over 100 µM in each case. Further, the TGI in the assay with RXF 393 renal and in the assay with HOP-62 NSCLC was over 100 µM each time.

`O=c1oc2c3ccc4ccccc4c3n(CCN3CCOCC3)c2c2ccccc12`: the TGI with OVCAR-8 ovarian was over 100 µM; in the assay with RPMI-8226 leukemia, over 100 µM; in the assay on CCRF-CEM leukemia, 15.2 µM; in the assay on COLO 205 colon it was over 100 µM; in the assay on CAKI-1 renal it was over 100 µM; with SR leukemia, 58.3 µM. The compound also displayed a TGI with HOP-62 NSCLC of over 100 µM.

As for `COc1ccc2c(c1)CCc1cnn(C3OC(COC(C)=O)C(OC(C)=O)C(OC(C)=O)C3OC(C)=O)c1-2` (stereo not given), the TGI with OVCAR-8 ovarian was over 100 µM; in the assay on RPMI-8226 leukemia, 53.8 µM; in the assay on CCRF-CEM leukemia, 60.5 µM; in the assay on A498 renal, over 100 µM; in the assay with COLO 205 colon, over 100 µM; in the assay with CAKI-1 renal, over 100 µM. The TGI in the assay with SR leukemia was 70.5 µM; in the assay on HOP-62 NSCLC, over 100 µM.

Consider `C=CCCC(O)c1ccc(C(O)CCCCCCCCCCCC)o1` (stereo not given), for which the GI50 with OVCAR-8 ovarian is 13.5 µM; in the assay on RPMI-8226 leukemia, 27.1 µM; with CCRF-CEM leukemia it was 18.4 µM; in the assay with COLO 205 colon, 40.5 µM; in the assay with CAKI-1 renal it was 18.1 µM; in the assay with RXF 393 renal, 16 µM. In addition, the GI50 in the assay on DU-145 prostate is 22.6 µM; with HOP-62 NSCLC, 19.1 µM. The TGI in the assay on OVCAR-8 ovarian is 30.3 µM; with RPMI-8226 leukemia, over 100 µM; in the assay with CCRF-CEM leukemia, over 100 µM; with COLO 205 colon, over 100 µM; with CAKI-1 renal it was 34.8 µM; in the assay on RXF 393 renal, 33.2 µM. The TGI was 46.9 µM with DU-145 prostate and 34.8 µM in the assay with HOP-62 NSCLC.

Turning to `COC(=O)CCC(=O)CC(=O)C(=O)Nc1ccc(F)cc1`, the TGI in the assay with OVCAR-8 ovarian, in the assay on RPMI-8226 leukemia, with CCRF-CEM leukemia, with A498 renal, in the assay on COLO 205 colon and in the assay on CAKI-1 renal was over 100 µM each time. In addition, the TGI in the assay with RXF 393 renal and with HOP-62 NSCLC was over 100 µM throughout.
